Test results taken from PubChem BioAssay (NCI).
“And” between values parts separate entries of the source, which are not always exact repeats. Equal entries are not always repeated.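 Grown in 96-well plates, cells were treated for 48 hours with each compound at five concentrations. Insufficient inhibition: endpoint recorded as highest concentration tested. GI50 = concentration required for 50% inhibition of growth. Definition used: TGI = concentration required for complete inhibition of growth.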

Each compound was assayed on K-562 leukemia (assay: inhibition of tumour cell growth, NCI panel, 48 h).

SMILES | GI50 [µM] | TGI
Clc1cc2c(c(CSc3nc4ccccc4n4cccc34)c1)OCOC2 | > 100 | > 100 µM
CN1CCN(c2ccc(Nc3cc(-c4cccc(-n5ccc6cc(C7CC7)cc(F)c6c5=O)c4CO)cn(C)c3=O)nc2)CC1 | 3.17 | 12 µM
COc1ccc2nc3ccccc3c(NCc3ccc(F)cc3)c2c1 | 1.52 | 6.94 µM
CCn1c(O)c(/C=N/NC(=O)C(C)c2ccc(CC(C)C)cc2)sc1=S (centres undefined) | 0.282 | > 48.4 µM
C[C@@H]1C[C@@H]([C@@H](CC2CC(=O)NC(=O)C2)OC(=O)CC(=O)c2ccccc2)C(=O)[C@@H](C)C1 | 0.682 | > 100 µM
CCOC(=O)Nc1cc2c(c(N)n1)N=C(c1ccccc1)CO2 | 0.0336 | 34 µM
CC1CC2CCCC(O)=C2C(=O)O1 (centres undefined) |  | > 100 µM
CC(C)(/C=C(\C#N)C(=O)N1CCC[C@@H](n2nc(-c3ccc(Oc4ccccc4)cc3F)c3c(N)ncnc32)C1)N1CCN(C2COC2)CC1 | 7.49 | > 100 µM
O=c1oc2ccc(-c3ccc(F)cc3F)cc2c(=O)n1-c1cccc(C(F)(F)F)c1 | 1.2 | 18.2 µM
COC(=O)c1ccc2c(c1)C(=O)c1c-2n(CCCN=[N+]=[N-])c(=O)c2cc(OC)c(OC)cc12 | > 100 | > 100 µM
O=C(Cc1ccc(F)c(Cl)c1)Nc1cc(C2(C(F)(F)F)CC2)nn1CC1CCCCC1 | 4.28 | > 15 µM
NNC(=O)CNc1cccc(Br)c1 |  | > 100 µM
NC(N)=NCCCC(=O)O |  | > 100 µM
CCCC(=O)Nc1cn(COC)c(C(=O)N2C[C@@H]3C[C@]34C2=CC(=O)c2[nH]cc(C)c24)n1 | 3.02 | 50 µM and > 100 µM
CNCCOC(=O)/C=C1\CC[C@H]2[C@@H]([C@@H](O)C(=O)[C@@H]3[C@]2(C)CC[C@H](O)[C@]3(C)C(=O)OC)[C@H]1C | 0.412 | 2.37 µM
Cc1nnc(Nc2ccc(NC(=O)Nc3ccc(Cl)cc3)cc2)c2ccccc12 | 2.2 | 4.67 µM
CC(=O)ON1CCCC(P(=O)(OCCSC(=O)C(C)(C)C)OCCSC(=O)C(C)(C)C)C1=O (centres undefined) | 0.674 | > 100 µM
COC(=O)[C@]12CC[C@@H](C)[C@H](C)[C@@H]1C1=CC[C@@H]3[C@@]4(C)C[C@@H](O)[C@H](O)[C@@](C)(CO)C4=CC[C@@]3(C)[C@]1(C)CC2 | 17.5 | 36.6 µM
COc1ccc(C(=O)Nc2ccc(O)c(=O)cc2)cc1 |  | 77.3 µM
Cc1nc(N)sc1N=Nc1ccccc1Br |  | > 100 µM
NS(=O)(=O)c1ccc(N=Nc2c(O)c(C(=O)O)cc3ccccc23)cc1 |  | > 100 µM
Cc1c(N(C)C)ccc2c(=O)c3cccc(CC(=O)O)c3oc12 |  | > 100 µM
CC(NCCC(c1ccccc1)c1ccccc1)c1ccccc1 (centres undefined) | 2.42 | 5.23 µM
C/C(N=NC(=S)N1CC2CCC(CC2)C1)=C1\C=CC=CN1O |  | > 46.8 µM
O=C(Nc1ccc(Br)cc1F)c1cc(Cl)ccc1O | 0.489 | > 50.7 µM
NC(N)=N/N=C/c1c(Cl)cccc1Cl | 24.1 | 63.1 µM
S=c1[nH]c(=S)c2cc3ccccc3nc2[nH]1 | > 100 | > 100 µM

Each compound was assayed on MALME-3M melanoma (assay: inhibition of tumour cell growth, NCI panel, 48 h).

SMILES | GI50 [µM] | TGI [µM]
Clc1cc2c(c(CSc3nc4ccccc4n4cccc34)c1)OCOC2 | 29.6 | > 100
CN1CCN(c2ccc(Nc3cc(-c4cccc(-n5ccc6cc(C7CC7)cc(F)c6c5=O)c4CO)cn(C)c3=O)nc2)CC1 | 2.25 | 4.79
COc1ccc2nc3ccccc3c(NCc3ccc(F)cc3)c2c1 | 1.46 | 5.38
CCn1c(O)c(/C=N/NC(=O)C(C)c2ccc(CC(C)C)cc2)sc1=S (centres undefined) | 0.331 | > 43
C[C@@H]1C[C@@H]([C@@H](CC2CC(=O)NC(=O)C2)OC(=O)CC(=O)c2ccccc2)C(=O)[C@@H](C)C1 | 0.496 | 13.6
CCOC(=O)Nc1cc2c(c(N)n1)N=C(c1ccccc1)CO2 | 5.11 | 36.2
CC1CC2CCCC(O)=C2C(=O)O1 (centres undefined) |  | > 100
CC(C)(/C=C(\C#N)C(=O)N1CCC[C@@H](n2nc(-c3ccc(Oc4ccccc4)cc3F)c3c(N)ncnc32)C1)N1CCN(C2COC2)CC1 | 6.07 | 19.5
O=c1oc2ccc(-c3ccc(F)cc3F)cc2c(=O)n1-c1cccc(C(F)(F)F)c1 | 0.785 | 4.74
COC(=O)c1ccc2c(c1)C(=O)c1c-2n(CCCN=[N+]=[N-])c(=O)c2cc(OC)c(OC)cc12 | > 100 | > 100
O=C(Cc1ccc(F)c(Cl)c1)Nc1cc(C2(C(F)(F)F)CC2)nn1CC1CCCCC1 | 2.7 | 8.06
NNC(=O)CNc1cccc(Br)c1 |  | > 100
NC(N)=NCCCC(=O)O |  | > 100
CCCC(=O)Nc1cn(COC)c(C(=O)N2C[C@@H]3C[C@]34C2=CC(=O)c2[nH]cc(C)c24)n1 |  | 6.66
CNCCOC(=O)/C=C1\CC[C@H]2[C@@H]([C@@H](O)C(=O)[C@@H]3[C@]2(C)CC[C@H](O)[C@]3(C)C(=O)OC)[C@H]1C | 0.324 | 1.42
Cc1nnc(Nc2ccc(NC(=O)Nc3ccc(Cl)cc3)cc2)c2ccccc12 | 2.17 | 4.79
CC(=O)ON1CCCC(P(=O)(OCCSC(=O)C(C)(C)C)OCCSC(=O)C(C)(C)C)C1=O (centres undefined) | 0.537 | 9.05
COC(=O)[C@]12CC[C@@H](C)[C@H](C)[C@@H]1C1=CC[C@@H]3[C@@]4(C)C[C@@H](O)[C@H](O)[C@@](C)(CO)C4=CC[C@@]3(C)[C@]1(C)CC2 | 17.5 | 31.3
COc1ccc(C(=O)Nc2ccc(O)c(=O)cc2)cc1 |  | > 100
Cc1nc(N)sc1N=Nc1ccccc1Br |  | 61
NS(=O)(=O)c1ccc(N=Nc2c(O)c(C(=O)O)cc3ccccc23)cc1 |  | 65.9
Cc1c(N(C)C)ccc2c(=O)c3cccc(CC(=O)O)c3oc12 |  | > 100
CC(NCCC(c1ccccc1)c1ccccc1)c1ccccc1 (centres undefined) | 1.75 | 3.44
C/C(N=NC(=S)N1CC2CCC(CC2)C1)=C1\C=CC=CN1O |  | > 82.4
O=C(Nc1ccc(Br)cc1F)c1cc(Cl)ccc1O | 0.434 | 2.67
NC(N)=N/N=C/c1c(Cl)cccc1Cl | 16.2 | 33.5
S=c1[nH]c(=S)c2cc3ccccc3nc2[nH]1 | 14.6 | 45.1

Each compound was assayed on NCI/ADR-RES ovarian (assay: inhibition of tumour cell growth, NCI panel, 48 h).

SMILES | GI50 [µM] | TGI [µM]
Clc1cc2c(c(CSc3nc4ccccc4n4cccc34)c1)OCOC2 | 61 | > 100
CN1CCN(c2ccc(Nc3cc(-c4cccc(-n5ccc6cc(C7CC7)cc(F)c6c5=O)c4CO)cn(C)c3=O)nc2)CC1 | 8.03 | 33.4
COc1ccc2nc3ccccc3c(NCc3ccc(F)cc3)c2c1 | 1.82 | 8.24
CCn1c(O)c(/C=N/NC(=O)C(C)c2ccc(CC(C)C)cc2)sc1=S (centres undefined) | 0.276 | > 38.8
C[C@@H]1C[C@@H]([C@@H](CC2CC(=O)NC(=O)C2)OC(=O)CC(=O)c2ccccc2)C(=O)[C@@H](C)C1 | 0.689 | > 100
CCOC(=O)Nc1cc2c(c(N)n1)N=C(c1ccccc1)CO2 | 0.061 | 21.5
CC1CC2CCCC(O)=C2C(=O)O1 (centres undefined) |  | > 100
CC(C)(/C=C(\C#N)C(=O)N1CCC[C@@H](n2nc(-c3ccc(Oc4ccccc4)cc3F)c3c(N)ncnc32)C1)N1CCN(C2COC2)CC1 | 14.7 | 43.7
O=c1oc2ccc(-c3ccc(F)cc3F)cc2c(=O)n1-c1cccc(C(F)(F)F)c1 | 2.2 | 8.9
COC(=O)c1ccc2c(c1)C(=O)c1c-2n(CCCN=[N+]=[N-])c(=O)c2cc(OC)c(OC)cc12 | > 100 | > 100
O=C(Cc1ccc(F)c(Cl)c1)Nc1cc(C2(C(F)(F)F)CC2)nn1CC1CCCCC1 | 3.88 | > 15
NNC(=O)CNc1cccc(Br)c1 |  | > 100
NC(N)=NCCCC(=O)O |  | > 100
